Measured values from ChEMBL document CHEMBL1132639, “2-Amino-4-benzyl-4,5,6,7-tetrahydrothiazolo[5,4-c]pyridines: novel selective beta3-adrenoceptor agonists” (J Med Chem, 1999).
Active and inactive are the calls of the source. The calls are words filed in the database; no cut-off is given here.

Assays:
[1] = molecular target: Beta-2 adrenergic receptor (Homo sapiens) (UniProt P07550); assay: Drug concentration which produces cAMP response equal to 50% of its maximal response against human beta-2-adrenoceptor in chinese hamster ovary cells was determined; Not active; assay type: functional, cell-based
Sequence of Beta-2 adrenergic receptor (Homo sapiens) (P07550 whole entry, looked up): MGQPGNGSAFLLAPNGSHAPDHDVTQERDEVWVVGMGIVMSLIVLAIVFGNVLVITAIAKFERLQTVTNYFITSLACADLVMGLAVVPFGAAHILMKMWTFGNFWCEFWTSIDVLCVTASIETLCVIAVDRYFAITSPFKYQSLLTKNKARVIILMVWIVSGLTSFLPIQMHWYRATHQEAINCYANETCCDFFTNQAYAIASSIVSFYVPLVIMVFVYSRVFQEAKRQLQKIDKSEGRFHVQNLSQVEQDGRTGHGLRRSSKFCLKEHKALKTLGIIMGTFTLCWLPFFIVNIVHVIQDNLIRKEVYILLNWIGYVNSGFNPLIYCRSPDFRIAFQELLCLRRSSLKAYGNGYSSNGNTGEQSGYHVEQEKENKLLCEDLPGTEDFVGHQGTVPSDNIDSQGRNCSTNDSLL

[2] = molecular target: T1, Beta-3 adrenergic receptor (Homo sapiens, UniProt P13945); assay: Intrinsic activity expressed as the percentage of maximal analogue response relative to the maximal response(100%) of isoproterenol against human beta-3-adrenoceptor; assay type: functional
Target sequence in this assay (P13945 whole entry, looked up): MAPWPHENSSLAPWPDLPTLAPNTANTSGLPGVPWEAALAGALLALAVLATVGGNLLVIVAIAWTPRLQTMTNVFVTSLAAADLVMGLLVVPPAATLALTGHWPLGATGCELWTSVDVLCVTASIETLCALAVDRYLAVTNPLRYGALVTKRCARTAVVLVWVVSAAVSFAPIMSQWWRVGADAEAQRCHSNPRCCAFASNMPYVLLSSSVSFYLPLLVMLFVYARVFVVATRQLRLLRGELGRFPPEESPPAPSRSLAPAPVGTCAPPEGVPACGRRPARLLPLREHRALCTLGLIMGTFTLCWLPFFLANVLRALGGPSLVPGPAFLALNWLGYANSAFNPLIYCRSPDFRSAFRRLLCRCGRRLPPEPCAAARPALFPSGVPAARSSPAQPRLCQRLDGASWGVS

[3] = molecular target: Beta-1 adrenergic receptor (Homo sapiens) (UniProt P08588); assay: Intrinsic activity expressed as the percentage of maximal analogue response relative to the maximal response(100%) of isoproterenol against human beta-1-adrenoceptor; assay type: functional
Sequence of Beta-1 adrenergic receptor (Homo sapiens) (P08588 whole entry, looked up): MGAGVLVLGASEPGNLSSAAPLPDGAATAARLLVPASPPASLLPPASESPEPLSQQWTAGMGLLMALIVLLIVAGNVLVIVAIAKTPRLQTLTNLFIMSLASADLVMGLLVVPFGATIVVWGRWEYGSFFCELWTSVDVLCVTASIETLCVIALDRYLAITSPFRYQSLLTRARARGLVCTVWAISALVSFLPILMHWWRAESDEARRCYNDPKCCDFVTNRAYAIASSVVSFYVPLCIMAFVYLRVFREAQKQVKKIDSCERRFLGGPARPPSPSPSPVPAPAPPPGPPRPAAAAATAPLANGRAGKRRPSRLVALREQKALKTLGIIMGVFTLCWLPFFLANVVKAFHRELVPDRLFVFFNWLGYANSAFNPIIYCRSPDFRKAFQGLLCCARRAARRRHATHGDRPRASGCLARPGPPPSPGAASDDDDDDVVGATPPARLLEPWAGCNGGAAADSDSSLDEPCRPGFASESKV

[4] = molecular target: Beta-1 adrenergic receptor (Homo sapiens) (UniProt P08588); conditions: ovary
[5] = molecular target: T1, Beta-3 adrenergic receptor; conditions: ovary
Target sequence in this assay (P13945 whole entry, looked up): as the sequence (P13945 whole entry, looked up) above
Description: Drug concentration which produces cAMP response equal to 50% of its maximal response against human beta-3-adrenoceptor expressed in chinese hamster ovary cells was determined

[6] = molecular target: T1, Beta-3 adrenergic receptor; assay: Drug concentration which produces cAMP response equal to 50% of its maximal response against human beta-3-adrenoceptor in chinese hamster ovary cells was determined; Not active; assay type: functional, cell-based
Target sequence in this assay (P13945 whole entry, looked up): as above

[7] = molecular target: Beta-1 adrenergic receptor (Homo sapiens) (UniProt P08588); conditions: ovary; remark: listed apart in the source
Description: Drug concentration which produces cAMP response equal to 50% of its maximal response against human beta-1-adrenoceptor in chinese hamster ovary cells was determined

[8] = molecular target: Beta-2 adrenergic receptor (Homo sapiens) (UniProt P07550); conditions: ovary
[9] = molecular target: T1, Beta-3 adrenergic receptor; assay: Intrinsic activity expressed as the percentage of maximal analogue response relative to the maximal response(100%) of isoproterenol against human beta-3-adrenoceptor using CRE-LUC assay; assay type: functional
Target sequence in this assay (P13945 whole entry, looked up): as above

[10] = molecular target: T1, Beta-3 adrenergic receptor; assay: Drug concentration which produces a cAMP response equal to 50% of its maximal response against human beta-3-adrenoceptor using CRE-LUC assay; assay type: functional
Target sequence in this assay (P13945 whole entry, looked up): as above

[11] = molecular target: T1, Beta-3 adrenergic receptor; assay: Drug concentration which produces cAMP response equal to 50% of its maximal response against human beta 3-adrenoceptor in chinese hamster ovary cells was determined; assay type: functional, cell-based
Target sequence in this assay (P13945 whole entry, looked up): as above

[12] = molecular target: Beta-1 adrenergic receptor (Homo sapiens) (UniProt P08588)
[13] = molecular target: Beta-2 adrenergic receptor (Homo sapiens) (UniProt P07550)
[14] = molecular target: Beta-2 adrenergic receptor (Homo sapiens) (UniProt P07550); conditions: ovary; remark: listed apart in the source
[15] = molecular target: Beta-1 adrenergic receptor (Homo sapiens) (UniProt P08588); assay: Intrinsic activity expressed as the percentage of maximal analogue response relative to the maximal response(100%) of isoproterenol against human beta-1-adrenoceptor using CRE-LUC assay; assay type: functional
[16] = molecular target: T1, Beta-3 adrenergic receptor; assay: Binding Affinity against human Beta-3 adrenergic receptor expressed in Chinese hamster ovary(CHO) cells was measured by using [125I]ICYP radioligand; assay type: cell-based
Target sequence in this assay (P13945 whole entry): as the sequence (P13945 whole entry, looked up) above

## COc1cc(CC2NCCc3nc(N)sc32)cc(OC)c1OC (stereo not drawn)
[1]
  pKact: inactive
[2]
  Intrinsic activity: 54
[3]
  Intrinsic activity: < 10
[4]
  pKact: inactive
[5]
  pKact: 5.06

## COc1c(I)cc(CC2NCCc3nc(NC(C)=O)sc32)cc1I (stereo not drawn)
[1]
  pKact: inactive
[6]
  pKact: inactive
[4]
  pKact: inactive

## COc1cc(C[C@@H]2NCCc3cc(O)c(O)cc32)cc(OC)c1OC
[7]
  pKact: 8.7
[5]
  pKact: 8.6
[8]
  pKact: 8.33

## COc1c(I)cc(CC2NCCc3nc(N)sc32)cc1I (stereo not drawn)
[9]
  Intrinsic activity: 62
[10]
  pKact: 6.71
[11]
  pKact: 6.95
[12]
  pKact: inactive
[4]
  pKact: inactive
[13]
  pKact: inactive
[14]
  pKact: inactive

## CC(C)NCC(O)c1ccc(O)c(O)c1 (stereo not drawn)
[5]
  pKact: 7.37

## COc1cc(CCNCCc2cnc(N)s2)cc(OC)c1OC
[1]
  pKact: inactive
[6]
  pKact: inactive
[9]
  Intrinsic activity: < 10
[15]
  Intrinsic activity: < 10
[4]
  pKact: inactive

## COc1c(I)cc(CC2NCCc3cc(O)c(O)cc32)cc1I (stereo not drawn)
[16]
  Ki: 21.4 nM
[7]
  pKact: 8.11
[5]
  pKact: 8.76
[8]
  pKact: 8.47
